These results are taken from patent US20230024096A1, “BIFUNCTIONAL COMPOUNDS FOR THE TREATMENT OF CANCER” (Hoffmann-La Roche Inc., priority 2019, published 2023).

The experiment addresses T1, SMARCA2 (Homo sapiens, UniProt P51531).
T1 construct: endogenous in cells; host or cells: HT1080 (CRISPR HiBiT knock-in clone, generated in house)
The experiment is described as follows: SMARCA2 HiBiT degradation assay (cellular). In kind it is cell-based. As to conditions: table head names A549; for DC50: 6 h incubation, HiBiT-tagged SMARCA2, luminescence read-out, read-out: HiBit A549 SMARCA2 IP (nM) 6 h; for Emax: A549, 6 h incubation, Emax = amount of residual protein remaining in the cell following compound treatment.

T1 sequence (P51531 whole entry): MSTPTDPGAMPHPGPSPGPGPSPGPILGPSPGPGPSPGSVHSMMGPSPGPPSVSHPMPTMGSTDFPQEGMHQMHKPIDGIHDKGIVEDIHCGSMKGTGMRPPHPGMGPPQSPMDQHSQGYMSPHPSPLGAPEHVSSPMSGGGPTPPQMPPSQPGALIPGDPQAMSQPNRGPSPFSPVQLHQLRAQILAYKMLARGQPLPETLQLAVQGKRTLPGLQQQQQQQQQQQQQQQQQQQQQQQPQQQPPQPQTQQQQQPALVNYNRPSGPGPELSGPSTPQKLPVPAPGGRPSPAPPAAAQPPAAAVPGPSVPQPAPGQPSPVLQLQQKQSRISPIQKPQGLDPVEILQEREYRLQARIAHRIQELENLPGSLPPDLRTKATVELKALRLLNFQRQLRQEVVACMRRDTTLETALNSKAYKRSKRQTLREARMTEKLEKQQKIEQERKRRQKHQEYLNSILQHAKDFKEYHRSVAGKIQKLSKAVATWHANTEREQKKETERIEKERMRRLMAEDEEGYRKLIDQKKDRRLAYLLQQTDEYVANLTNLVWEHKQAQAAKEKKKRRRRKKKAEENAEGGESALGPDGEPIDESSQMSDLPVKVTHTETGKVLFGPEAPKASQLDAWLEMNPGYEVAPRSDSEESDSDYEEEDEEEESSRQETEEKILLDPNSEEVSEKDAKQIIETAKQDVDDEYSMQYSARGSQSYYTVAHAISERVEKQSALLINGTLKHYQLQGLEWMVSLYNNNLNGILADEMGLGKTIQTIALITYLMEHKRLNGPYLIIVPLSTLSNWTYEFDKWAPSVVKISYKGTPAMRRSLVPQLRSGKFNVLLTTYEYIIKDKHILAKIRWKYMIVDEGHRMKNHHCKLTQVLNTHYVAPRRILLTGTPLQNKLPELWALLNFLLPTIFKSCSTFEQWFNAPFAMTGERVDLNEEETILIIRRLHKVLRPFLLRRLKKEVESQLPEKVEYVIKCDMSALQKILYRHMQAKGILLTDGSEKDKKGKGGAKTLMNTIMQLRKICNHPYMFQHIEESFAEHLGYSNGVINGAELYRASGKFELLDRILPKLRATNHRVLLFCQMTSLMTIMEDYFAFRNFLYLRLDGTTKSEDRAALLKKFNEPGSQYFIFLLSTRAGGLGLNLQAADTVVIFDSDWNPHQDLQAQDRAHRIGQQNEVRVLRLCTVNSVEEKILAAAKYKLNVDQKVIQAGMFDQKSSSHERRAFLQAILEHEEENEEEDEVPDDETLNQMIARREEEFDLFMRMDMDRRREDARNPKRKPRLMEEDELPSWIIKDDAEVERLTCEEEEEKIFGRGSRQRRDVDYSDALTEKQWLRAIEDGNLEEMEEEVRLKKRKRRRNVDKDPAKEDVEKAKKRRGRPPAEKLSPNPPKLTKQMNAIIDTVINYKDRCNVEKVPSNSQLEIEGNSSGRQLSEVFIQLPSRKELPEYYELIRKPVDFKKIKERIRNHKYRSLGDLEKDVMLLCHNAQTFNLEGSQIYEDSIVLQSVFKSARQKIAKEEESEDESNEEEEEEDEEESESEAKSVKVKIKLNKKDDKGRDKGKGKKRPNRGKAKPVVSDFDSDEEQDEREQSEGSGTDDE

Turning to `Cc1c(C(=O)N2CCN(C(=O)C3CCN(c4ccc5c(c4)C(=O)N(C4CCC(=O)NC4=O)C5=O)CC3)CC2)cccc1N1C2CCC1CN(c1cc(-c3ccccc3O)nnc1N)C2` (racemic) [Example 116, rac-5-[4-[4-[3-[3-[3-amino-6-(2-hydroxyphenyl)pyridazin-4-yl]-3,8-diazabicyclo[3.2.1]octan-8-yl]-2-methyl-benzoyl]piperazine-1-carbonyl]-1-piperidyl]-2-(2,6-dioxo-3-piperidyl)isoindoline-1,3-dione], the DC50 is 58 nM and the Emax is 32%.

Consider `Nc1nnc(-c2ccccc2O)cc1O[C@@H]1CCCN(c2ccc(N3CCN(C(=O)CCCCCCCCn4cc(CNc5cccc6c5C(=O)N(C5CCC(=O)NC5=O)C6=O)nn4)CC3)cc2)C1` (mixture of isomers) [Example 62, 2-(2,6-dioxo-3-piperidyl)-4-[[1-[9-oxo-9-[4-[4-[rac-(3R)-3-[3-amino-6-(2-hydroxyphenyl)pyridazin-4-yl]oxy-1-piperidyl]phenyl]piperazin-1-yl]nonyl]triazol-4-yl]methylamino]isoindoline-1,3-dione], for which the DC50 turned out to be 124 nM and the maximum response (Emax) came to 33%.

Regarding `Nc1nnc(-c2ccccc2O)cc1OC1CCCN(c2ccc(N3CCN(CCCCC(=O)N4CCC(n5cc(COc6cccc7c6C(=O)N(C6CCC(=O)NC6=O)C7=O)nn5)CC4)CC3)cc2)C1` (racemic) [Example 138, 2-(2,6-dioxo-3-piperidyl)-4-[[1-[1-[5-[4-[4-[rac-(3S)-3-[3-amino-6-(2-hydroxyphenyl)pyridazin-4-yl]oxy-1-piperidyl]phenyl]piperazin-1-yl]pentanoyl]-4-piperidyl]triazol-4-yl]methoxy]isoindoline-1,3-dione], the DC50 was determined as 678 nM and the Emax was found to be 42%.

As for `Nc1nnc(-c2ccccc2O)cc1N1CC2CCC(C1)N2c1cccc(OCCN2CCN(C(=O)N3CCN(c4ccc5c(c4)C(=O)N(C4CCC(=O)NC4=O)C5=O)CC3)CC2)c1` (racemic) [Example 49, rac-5-[4-[4-[2-[3-[3-[3-amino-6-(2-hydroxyphenyl)pyridazin-4-yl]-3,8-diazabicyclo[3.2.1]octan-8-yl]phenoxy]ethyl]piperazine-1-carbonyl]piperazin-1-yl]-2-(2,6-dioxo-3-piperidyl)isoindoline-1,3-dione], the DC50 came to 4 nM and the Emax is 39%.

As to `Nc1nnc(-c2ccccc2O)cc1N1CCC(NC(=O)CC2CCN(C(=O)C3CCN(c4ccc5c(c4)C(=O)N(C4CCC(=O)NC4=O)C5=O)CC3)CC2)(c2ccccc2)CC1` (stereo not shown) [Example 184, N-[1-[3-amino-6-(2-hydroxyphenyl)pyridazin-4-yl]-4-phenyl-4-piperidyl]-2-[1-[1-[2-(2,6-dioxo-3-piperidyl)-1,3-dioxo-isoindolin-5-yl]piperidine-4-carbonyl]-4-piperidyl]acetamide], the DC50 was determined as 494 nM and the maximal response (Emax) turned out to be 65%.

As for `Nc1nnc(-c2ccccc2O)cc1N1CC2CCC(C1)N2c1cccc(CN2CCC(C(=O)NC3CCN(c4ccc5c(c4)C(=O)N(C4CCC(=O)NC4=O)C5=O)CC3)CC2)c1` (racemic) [Example 106, rac-1-[[3-[3-[3-amino-6-(2-hydroxyphenyl)pyridazin-4-yl]-3,8-diazabicyclo[3.2.1]octan-8-yl]phenyl]methyl]-N-[1-[2-(2,6-dioxo-3-piperidyl)-1,3-dioxo-isoindolin-5-yl]-4-piperidyl]piperidine-4-carboxamide], the DC50 amounted to 23 nM and the Emax came out at 26%.

As for `Nc1nnc(-c2ccccc2O)cc1N1CCC(C(=O)N2CCC(C(=O)N3CCN(c4ccc5c(c4)C(=O)N(C4CCC(=O)NC4=O)C5=O)CC3)CC2)(c2ccccc2)CC1` (stereo not shown) [Example 178, 5-(4-(1-(1-(3-amino-6-(2-hydroxyphenyl)pyridazin-4-yl)-4-phenylpiperidine-4-carbonyl)piperidine-4-carbonyl)piperazin-1-yl)-2-(2,6-dioxopiperidin-3-yl)isoindoline-1,3-dione], the DC50 turned out to be 187 nM and the Emax came to 46%.

`Nc1nnc(-c2ccccc2O)cc1N1CCC(C(=O)N2CC3(CCN(C(=O)C4CCN(c5ccc6c(c5)C(=O)N(C5CCC(=O)NC5=O)C6=O)CC4)CC3)C2)(c2ccccc2)CC1` (stereo not shown) [Example 163, 5-(4-(2-(1-(3-amino-6-(2-hydroxyphenyl)pyridazin-4-yl)-4-phenylpiperidine-4-carbonyl)-2,7-diazaspiro[3.5]nonane-7-carbonyl)piperidin-1-yl)-2-(2,6-dioxopiperidin-3-yl)isoindoline-1,3-dione]: the DC50 was 22 nM and the Emax is 33%.

Consider `Nc1nnc(-c2ccccc2O)cc1N1CC2CCC(C1)N2c1cccc(OCCN2CCN(CCCOC3CCN(c4ccc5c(c4)C(=O)N(C4CCC(=O)NC4=O)C5=O)CC3)CC2)c1` (racemic) [Example 36, rac-5-[4-[3-[4-[2-[3-[3-[3-amino-6-(2-hydroxyphenyl)pyridazin-4-yl]-3,8-diazabicyclo[3.2.1]octan-8-yl]phenoxy]ethyl]piperazin-1-yl]propoxy]-1-piperidyl]-2-(2,6-dioxo-3-piperidyl)isoindoline-1,3-dione], for which the DC50 is 16 nM and the Emax is 27%.

For `Nc1nnc(-c2ccccc2O)cc1N1CC(Oc2cccc(CN3CCN(C(=O)CCC4CCN(c5ccc6c(c5)C(=O)N(C5CCC(=O)NC5=O)C6=O)CC4)CC3)c2)C1` (racemic) [Example 154, rac-5-[4-[3-[4-[[3-[1-[3-amino-6-(2-hydroxyphenyl)pyridazin-4-yl]azetidin-3-yl]oxyphenyl]methyl]piperazin-1-yl]-3-oxo-propyl]-1-piperidyl]-2-(2,6-dioxo-3-piperidyl)isoindoline-1,3-dione], the DC50 was determined as 12 nM and the maximal effect (Emax) stood at 16%.

Regarding `Nc1nnc(-c2ccccc2O)cc1N1CC2CCC(C1)N2c1cccc(OCCN2CCN(CCOC3CCN(c4ccc5c(c4)C(=O)N(C4CCC(=O)NC4=O)C5=O)CC3)CC2)c1` (racemic) [Example 35, rac-5-[4-[2-[4-[2-[3-[3-[3-amino-6-(2-hydroxyphenyl)pyridazin-4-yl]-3,8-diazabicyclo[3.2.1]octan-8-yl]phenoxy]ethyl]piperazin-1-yl]ethoxy]-1-piperidyl]-2-(2,6-dioxo-3-piperidyl)isoindoline-1,3-dione], the DC50 was 22 nM and the Emax is 33%.

As to `Nc1nnc(-c2ccccc2O)cc1OC1CCCN(c2ccc(N3CCN(CC4CN(C(=O)CCCCn5cc(COc6cccc7c6C(=O)N(C6CCC(=O)NC6=O)C7=O)nn5)C4)CC3)cc2)C1` (racemic) [Example 137, 2-(2,6-dioxo-3-piperidyl)-4-[[1-[5-oxo-5-[3-[[4-[4-[rac-(3S)-3-[3-amino-6-(2-hydroxyphenyl)pyridazin-4-yl]oxy-1-piperidyl]phenyl]piperazin-1-yl]methyl]azetidin-1-yl]pentyl]triazol-4-yl]methoxy]isoindoline-1,3-dione], the DC50 was 535 nM and the maximal effect (Emax) came out at 63%.

With `Nc1nnc(-c2ccccc2O)cc1N1CC2CCC(C1)N2c1cccc(OCCN2CCN(C(=O)CCC(=O)N3CCC(Oc4ccc5c(c4)C(=O)N(C4CCC(=O)NC4=O)C5=O)CC3)CC2)c1` (racemic) [Example 10, rac-5-[[1-[4-[4-[2-[3-[3-[3-amino-6-(2-hydroxyphenyl)pyridazin-4-yl]-3,8-diazabicyclo[3.2.1]octan-8-yl]phenoxy]ethyl]piperazin-1-yl]-4-oxo-butanoyl]-4-piperidyl]oxy]-2-(2,6-dioxo-3-piperidyl)isoindoline-1,3-dione], the DC50 was determined as 58 nM and the maximal response (Emax) was determined as 49%.

For `Nc1nnc(-c2ccccc2O)cc1N1CCC(C(=O)NCC2CCN(C(=O)CCCN3CCC(c4ccc(OC5CCC(=O)NC5=O)cc4)CC3)CC2)(c2ccccc2)CC1` (stereo not shown) [Example 104, 1-(3-amino-6-(2-hydroxyphenyl)pyridazin-4-yl)-N-((1-(4-(4-(4-((2,6-dioxopiperidin-3-yl)oxy)phenyl)piperidin-1-yl)butanoyl)piperidin-4-yl)methyl)-4-phenylpiperidine-4-carboxamide], the DC50 was determined as 103 nM and the maximal response (Emax) is 33%.

Take `Nc1nnc(-c2ccccc2O)cc1N1CC2CCC(C1)N2c1cccc(CN2CCN(CCOC3CCN(c4ccc5c(c4)C(=O)N(C4CCC(=O)NC4=O)C5=O)CC3)CC2)c1` (racemic) [Example 55, rac-5-[4-[2-[4-[[3-[3-[3-amino-6-(2-hydroxyphenyl)pyridazin-4-yl]-3,8-diazabicyclo[3.2.1]octan-8-yl]phenyl]methyl]piperazin-1-yl]ethoxy]-1-piperidyl]-2-(2,6-dioxo-3-piperidyl)isoindoline-1,3-dione]: the DC50 was found to be 19 nM and the maximal effect (Emax) came to 35%.

With `Nc1nnc(-c2ccccc2O)cc1OC1CCCN(c2ccc(N3CCN(CCCCCCCCCc4ccc(CNc5cccc6c5C(=O)N(C5CCC(=O)NC5=O)C6=O)nc4)CC3)cc2)C1` (stereo not shown) [Example 136, 4-[[5-[9-[4-[4-[3-[3-amino-6-(2-hydroxyphenyl)pyridazin-4-yl]oxy-1-piperidyl]phenyl]piperazin-1-yl]nonyl]-2-pyridyl]methylamino]-2-(2,6-dioxo-3-piperidyl)isoindoline-1,3-dione], the DC50 was determined as 495 nM and the maximum response (Emax) came out at 45%.

In the case of `Nc1nnc(-c2ccccc2O)cc1N1CC2CCC(C1)N2c1cccc(CN2CCN(CCCOC3CCN(c4ccc5c(c4)C(=O)N(C4CCC(=O)NC4=O)C5=O)CC3)CC2)c1` (racemic) [Example 56, rac-5-[4-[3-[4-[[3-[3-[3-Amino-6-(2-hydroxyphenyl)pyridazin-4-yl]-3,8-diazabicyclo[3.2.1]octan-8-yl]phenyl]methyl]piperazin-1-yl]propoxy]-1-piperidyl]-2-(2,6-dioxo-3-piperidyl)isoindoline-1,3-dione], the DC50 is 10 nM and the maximal response (Emax) was 36%.
